# Experimental data as given in patent US11701332B2, “Methods and compositions for treating female sexual interest and arousal disorder” (priority 2020, dated 2023).
# How the values were obtained:
# [1] = system: libido; conditions: biological women receiving testosterone as part of gender transition therapy; cited from earlier work
# [2] = system: libido; conditions: sublingual testosterone, short testosterone spike; cited from earlier work
# [3] = cited from earlier work
# [4] = in vivo; cited from earlier work
# [5] = target: peripheral androgen receptors (AR) (Homo sapiens, UniProt P10275); conditions: 450 mg darolutamide twice daily, person
# peripheral androgen receptors (AR), sequence (P10275 whole entry): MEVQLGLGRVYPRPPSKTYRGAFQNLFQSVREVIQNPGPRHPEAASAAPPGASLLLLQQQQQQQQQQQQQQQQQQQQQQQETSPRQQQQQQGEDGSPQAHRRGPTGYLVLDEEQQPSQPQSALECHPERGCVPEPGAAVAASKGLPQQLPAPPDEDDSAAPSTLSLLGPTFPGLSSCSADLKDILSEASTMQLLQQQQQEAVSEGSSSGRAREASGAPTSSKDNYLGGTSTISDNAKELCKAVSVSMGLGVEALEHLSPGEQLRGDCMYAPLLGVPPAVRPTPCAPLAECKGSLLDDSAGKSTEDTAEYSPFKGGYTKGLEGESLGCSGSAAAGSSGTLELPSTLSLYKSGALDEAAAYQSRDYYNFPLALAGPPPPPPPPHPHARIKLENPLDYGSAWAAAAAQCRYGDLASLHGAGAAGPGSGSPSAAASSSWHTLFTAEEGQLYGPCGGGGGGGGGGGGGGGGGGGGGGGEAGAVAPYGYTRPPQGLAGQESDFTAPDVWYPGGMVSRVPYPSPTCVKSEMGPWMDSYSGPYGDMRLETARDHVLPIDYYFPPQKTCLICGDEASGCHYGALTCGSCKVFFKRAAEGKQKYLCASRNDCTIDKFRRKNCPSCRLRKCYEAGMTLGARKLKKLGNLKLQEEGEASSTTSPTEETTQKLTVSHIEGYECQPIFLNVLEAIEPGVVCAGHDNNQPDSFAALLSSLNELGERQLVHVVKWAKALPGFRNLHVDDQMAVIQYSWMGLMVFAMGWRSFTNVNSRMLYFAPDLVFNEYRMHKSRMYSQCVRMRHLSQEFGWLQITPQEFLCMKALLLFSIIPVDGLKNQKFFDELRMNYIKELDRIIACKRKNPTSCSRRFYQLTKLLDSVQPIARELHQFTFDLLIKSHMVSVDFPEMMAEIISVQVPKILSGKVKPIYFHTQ
# Protocol: A person diagnosed with FSIAD is administered a 30 mg testosterone enanthate injection weekly, and a dose of 450 mg of darolutamide twice daily to achieve partial (90%) AR blockage peripherally, rather than total (100%) AR blockage.
# [6] = in vivo; cited from earlier work; remark: listed apart in the source
# [7] = system: libido; conditions: after injection; cited from earlier work
smiles,measurement,setting,value
C[C@]12CC[C@H]3[C@@H](CCC4=CC(=O)CC[C@@]43C)[C@@H]1CC[C@@H]2O [testosterone],women reporting an increase in libido,[1],71%
same,time until libido boost,[2],3.5 h
C[C@H]1CC(=O)C[C@@H]2CC[C@H]3[C@@H]4CC[C@H](O)[C@@]4(C)CC[C@@H]3[C@]21C [mesterolone],oral bioavailability,[3],3%
O=c1[nH]c2ccccc2n1CCN1CCN(c2cccc(C(F)(F)F)c2)CC1 [flibanserin],adverse effects,[4],low blood pressure
CC(O)c1cc(C(=O)N[C@@H](C)Cn2ccc(-c3ccc(C#N)c(Cl)c3)n2)[nH]n1 (stereo partly drawn) [darolutamide],AR blockage peripherally,[5],90%
same,crossing of the blood-brain barrier,[6],do not cross the blood-brain barrier
same,adverse effects,[4],does not cause major adverse effects
CCCC[C@H](NC(C)=O)C(=O)N[C@H]1CC(=O)NCCCC[C@@H](C(=O)O)NC(=O)[C@H](Cc2c[nH]c3ccccc23)NC(=O)[C@H](CCCN=C(N)N)NC(=O)[C@@H](Cc2ccccc2)NC(=O)[C@H](Cc2cnc[nH]2)NC1=O [bremelanotide],libido boost,[7],temporary libido boost shortly after injection
CC(O)(CS(=O)(=O)c1ccc(F)cc1)C(=O)Nc1ccc(C#N)c(C(F)(F)F)c1 (stereo not drawn) [bicalutamide],crossing of the blood-brain barrier,[6],do not cross the blood-brain barrier
